Test results reported in patent publication US20250281672A1, “IDENTIFICATION OF PRO- AND ANTI-INFLAMMATORY LIPIDS RELATING TO IMMUNE RESPONSE TO MEDICAL IMPLANTS” (William Marsh Rice University, priority 2021, published 2025).

Legend:
brain of mice = test: 2-week PDMS pillar implantation in mouse brain; histology and immunohistochemistry; type: in vivo; conditions: PDMS pillars, 2 weeks
Description: Mouse Brain Implantation. C57BL/6J mice were allowed to acclimate for greater than one week prior to surgical manipulation. After the acclimation period, 24 hours prior to surgery, the mice were premedicated with 5 mg/kg meloxicam SC for analgesia. 30 minutes prior to surgery, the mice were given 30 mg/kg trimethoprim-sulfamethoxazole PO for antimicrobial prophylaxis. The mice were then anesthetized with 3% isoflurane with 1 L/min O2 in an induction chamber and then transferred to a nose cone with 1-3% inhaled isoflurane with 0.5 L/min O2 for maintenance anesthesia. Depth of anesthesia was monitored testing for no response to toe pinch throughout surgery. Immediately following induction, the mouse was placed on a warming pad and maintained on the warming pad throughout surgery. The fur on the mouse head was trimmed with an electric razor and topical anesthetic with 2.5% lidocaine/prilocaine cream was applied for several minutes. The mice were then given 5 mg/kg meloxicam SC and 0.1 mg/kg buprenorphine SC for analgesia. The trimmed mouse scalp was then scrubbed with 7.5% povidone-iodine solution. Sterile neoprene surgical gloves (Medichoice) and sterile autoclaved instruments were used to maintain sterile technique throughout surgery. […]

[1] = tested on: gonadal fat pads of C57BL/6 adult male mice, a pro-fibrotic mouse model; test: 28-day implantation of functionalized PDMS disks on gonadal fat pads (IP space); gross fibrosis and histology; type: in vivo; conditions: 28 days
Description: PDMS disk/pillar preparation & functionalization. PDMS implants were made with SYLGARD™ 184 silicone elastomer by mixing the base and curing agent in a ratio of 10:1 and letting sit 24 hours at room temperature in either sheets or pillar molds. The PDMS sheets were punched with 4 mm biopsy punches to make disks, or the pillar were removed from their molds, and plasma cleaned under general atmospheric air on each side for 1 minute at high Rf, 700-800 torr. Samples were then functionalized by one of two methods: Method 1) for the methacryloyl modified Z2-Y12 and Z2-Y12 Analog, the PDMS disks were incubating in a solution of DMSO:ACN (Sigma) (60:40) overnight under nitrogen gas flow. For the methacryloyl modified Z1-Y15 (0.2M), methacryloyl Z1-Y15 was added to DMSO (0.3 w/v %) and heated to 80° C. Separately Milli-Q H2O was heated to 80° C. and added to the reaction dropwise for a final mixture of 1:4 DMSO:Milli-Q H2O. The mixture was left stirring under reduced heat 40-50° C. under high stirring conditions ([…]). PDMS sheets were added to this mixture and allowed to stir overnight under Nitrogen gas. Disks were submerged in 1×PBS and left to soak for 10 minutes. Samples were then washed 3× with 1×PBS after overnight functionalization. […] Functionalized disks were maintained at −80° C. until they were ready for implantation. […]

## NCCOCCOCCOCCn1cc(CN2CCS(=O)(=O)CC2)nn1 [Z1]
Brain of mice
  accumulation/migration of immune cells at the implant site (immunohistochemistry): not observed
  fibrotic strands of cells at the implant site (histology): absent
[1]; PDMS disks, gonadal fat pads
  adherent peripheral tissue on disks (FBR and fibrosis): virtually no adherent peripheral tissue was found
[1]; tissue around PDMS implants
  interfacial fibrotic layer on the implant surface (histology): prevented the development of an interfacial fibrotic layer
